Laboratory results as given in PubChem BioAssay AID248 (DTP/NCI, 2004).
Where “and” joins values, the source holds several entries; their conditions need not be identical. Equal entries are not always repeated. Inconclusive results and toxic doses are left out. Rule as the data show it: active = T/C of 150% or more; inactive = T/C below 125%.

System: L1210 leukemia ip in BDF1 mice, survival T/C
Experiment: NCI In Vivo Anticancer Drug Screen. Data for tumor model L1210 Leukemia (intraperitoneal) in B6D2F1 (BDF1) mice
Conditions: endpoint: mean survival time, higher = longer survival
In short: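 In this screen, tumor-bearing mice given compound are compared to those given vehicle, and their survival values are reported as a treated-to-control quotient.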

[1] = dose: 100.0 mg/kg/injection, schedule: Q04DX003 (ip), vehicle: Klucel (hydroxypropylcellulose) (HPC)
[2] = dose: 200.0 mg/kg/injection, schedule: Q04DX003 (ip), vehicle: Klucel (hydroxypropylcellulose) (HPC)
[3] = dose: 400.0 mg/kg/injection, schedule: Q04DX003 (ip), vehicle: Klucel (hydroxypropylcellulose) (HPC)
[4] = dose: 100.0 mg/kg/injection, schedule: Q01DX001 (ip), vehicle: saline
[5] = dose: 200.0 mg/kg/injection, schedule: Q01DX001 (ip), vehicle: saline
[6] = dose: 400.0 mg/kg/injection, schedule: Q01DX001 (ip), vehicle: saline
[7] = dose: 100.0 mg/kg/injection, schedule: Q04DX002 (ip), vehicle: Klucel (hydroxypropylcellulose) (HPC)
[8] = dose: 200.0 mg/kg/injection, schedule: Q04DX002 (ip), vehicle: Klucel (hydroxypropylcellulose) (HPC)
[9] = dose: 400.0 mg/kg/injection, schedule: Q04DX002 (ip), vehicle: Klucel (hydroxypropylcellulose) (HPC)
[10] = dose: 50.0 mg/kg/injection, schedule: Q01DX009 (ip), vehicle: saline with Tween-80

Measured: T/C

C/C(=N/N=C(N)N)c1cccc(O)c1
inactive: dose: 15.0 mg/kg/injection, schedule: Q01DX Z (ip), vehicle: methylcellulose (MC) 107 % of control | dose: 30.0 mg/kg/injection, schedule: Q01DX Z (ip), vehicle: methylcellulose (MC) 110 % of control | dose: 30.0 mg/kg/injection, schedule: Q01DX Z (oral), vehicle: methylcellulose (MC) 89 % of control | dose: 60.0 mg/kg/injection, schedule: Q01DX Z (ip), vehicle: methylcellulose (MC) 97 % of control

CCCCCCCCCCC(C)c1ccc(S(=O)(=O)O)cc1 (configuration not stated)
inactive: dose: 100.0 mg/kg/injection, schedule: Q01DX001 (ip), vehicle: saline sonified 97 % of control | dose: 200.0 mg/kg/injection, schedule: Q01DX001 (ip), vehicle: saline sonified 107 % of control

Cc1cc([N+](=O)[O-])c(C)cc1Cl
inactive: dose: 100.0 mg/kg/injection, schedule: Q01DX009 (ip), vehicle: saline sonified 98 % of control | [1] 98 % of control | dose: 200.0 mg/kg/injection, schedule: Q01DX009 (ip), vehicle: saline sonified 100 % of control | [2] 98 % of control | dose: 400.0 mg/kg/injection, schedule: Q01DX009 (ip), vehicle: saline sonified 100 % of control | [3] 98 % of control

CC(C)C(O)CC(=O)NN (configuration not stated)
inactive: [4] 98 % of control | [5] 110 % of control | [6] 102 % of control

COc1ccc2c(c1)CCC1C2CCC2(C)C1CCC2(C)N(C)C (configuration not stated)
inactive: dose: 50.0 mg/kg/injection, schedule: Q01DX001 (sc), vehicle: steriod suspending solution 104 % of control

CCc1ccc(NC(=O)c2ccc(Cl)cc2Cl)cc1
inactive: [7] 97 % of control | [8] 87 % of control | [9] 91 % of control

CN(CC1CNc2nc(N)[nH]c(=O)c2N1C)c1ccc(C(=O)NC(CCC(=O)O)C(=O)O)cc1 (configuration not stated)
inactive: [4] 94 % of control | [5] 102 % of control | [6] 94 % of control

C(OC[C@H]1CC[C@@H](COCC2CO2)O1)C1CO1 (some centres not stated)
inactive: [4] 112 % of control | dose: 108.0 mg/kg/injection, schedule: Q01DX007 (ip), vehicle: saline 120 % of control | dose: 178.0 mg/kg/injection, schedule: Q01DX001 (ip), vehicle: saline 106 % of control and 110 % of control | [5] 109 % of control | dose: 267.0 mg/kg/injection, schedule: Q01DX001 (ip), vehicle: saline 114 % of control and 115 % of control | [6] 114 % of control | dose: 600.0 mg/kg/injection, schedule: Q01DX001 (ip), vehicle: saline 98 % of control

CCC(CO)NC(=O)/C=C/c1cccc(Br)c1 (configuration not stated)
inactive: dose: 100.0 mg/kg/injection, schedule: Q04DX003 (ip), vehicle: other 102 % of control | dose: 200.0 mg/kg/injection, schedule: Q04DX003 (ip), vehicle: other 103 % of control | dose: 400.0 mg/kg/injection, schedule: Q04DX003 (ip), vehicle: other 96 % of control

c1nc(SCC2CO2)c2ncn(CC3CO3)c2n1 (configuration not stated)
inactive: [4] 107 % of control | [5] 101 % of control | [6] 97 % of control

Cc1cccc(C)c1NC(=O)/C=C\C(=O)O
inactive: [1] 98 % of control | [2] 91 % of control | [3] 94 % of control

Nc1ncnc2c1ncn2C1OC(COP(=O)(O)O)C(O)C1O (configuration not stated)
inactive: dose: 9.4 mg/kg/injection, schedule: Q03HX016 (ip), vehicle: water 108 % of control | dose: 9.4 mg/kg/injection, schedule: Q03HX024 (ip), vehicle: water 104 % of control | dose: 18.8 mg/kg/injection, schedule: Q03HX016 (ip), vehicle: water 108 % of control | dose: 18.8 mg/kg/injection, schedule: Q03HX024 (ip), vehicle: water 106 % of control | dose: 37.5 mg/kg/injection, schedule: Q03HX016 (ip), vehicle: water 108 % of control | dose: 37.5 mg/kg/injection, schedule: Q03HX024 (ip), vehicle: water 110 % of control | dose: 75.0 mg/kg/injection, schedule: Q03HX016 (ip), vehicle: water 116 % of control | dose: 75.0 mg/kg/injection, schedule: Q03HX024 (ip), vehicle: water 115 % of control | dose: 100.0 mg/kg/injection, schedule: Q01DX005 (ip), vehicle: saline 98 % of control | dose: 200.0 mg/kg/injection, schedule: Q01DX005 (ip), vehicle: saline 98 % of control

Cc1ccc(NC(=O)c2ccccc2)cc1Cl
inactive: dose: 100.0 mg/kg/injection, schedule: Q01DX009 (ip), vehicle: Klucel (hydroxypropylcellulose) (HPC) 98 % of control | [1] 106 % of control | dose: 200.0 mg/kg/injection, schedule: Q01DX009 (ip), vehicle: Klucel (hydroxypropylcellulose) (HPC) 95 % of control | [2] 101 % of control | dose: 400.0 mg/kg/injection, schedule: Q01DX009 (ip), vehicle: Klucel (hydroxypropylcellulose) (HPC) 96 % of control | [3] 97 % of control

CCC1=C2C(=O)c3ccccc3C2=C(C)S(=O)(=O)O1
inactive: dose: 12.5 mg/kg/injection, schedule: Q01DX009 (ip), vehicle: saline with Tween-80 95 % of control | dose: 25.0 mg/kg/injection, schedule: Q01DX009 (ip), vehicle: saline with Tween-80 108 % of control | [10] 94 % of control and 111 % of control | dose: 100.0 mg/kg/injection, schedule: Q04DX003 (ip), vehicle: saline with Tween-80 96 % of control | dose: 200.0 mg/kg/injection, schedule: Q04DX003 (ip), vehicle: saline with Tween-80 96 % of control

Cc1ccc(-c2cc(-c3ccccc3)n(-c3ccccc3)n2)cc1
inactive: dose: 100.0 mg/kg/injection, schedule: Q01DX009 (ip), vehicle: other 103 % of control | dose: 200.0 mg/kg/injection, schedule: Q01DX009 (ip), vehicle: other 96 % of control | dose: 400.0 mg/kg/injection, schedule: Q01DX009 (ip), vehicle: other 95 % of control

CN(C)S(=O)(=O)Oc1ccc(S(=O)(=O)F)cc1Cl
inactive: dose: 100.0 mg/kg/injection, schedule: Q04DX002 (ip), vehicle: saline 112 % of control | dose: 200.0 mg/kg/injection, schedule: Q04DX002 (ip), vehicle: saline 104 % of control | dose: 400.0 mg/kg/injection, schedule: Q04DX002 (ip), vehicle: saline 112 % of control

CC(=O)Nc1ccn(C2OC(COC(C)=O)C(OC3OC4COC(c5ccccc5)OC4C(OC(C)=O)C3OC(C)=O)C(OC(C)=O)C2OC(C)=O)c(=O)n1 (configuration not stated)
inactive: dose: 22.5 mg/kg/injection, schedule: Q01DX001 (ip), vehicle: carboxymethylcellulose (CMC) 97 % of control | dose: 45.0 mg/kg/injection, schedule: Q01DX001 (ip), vehicle: carboxymethylcellulose (CMC) 103 % of control | dose: 90.0 mg/kg/injection, schedule: Q01DX001 (ip), vehicle: carboxymethylcellulose (CMC) 92 % of control | dose: 180.0 mg/kg/injection, schedule: Q01DX001 (ip), vehicle: carboxymethylcellulose (CMC) 97 % of control

CC(C)(N)Cc1ccc(Cl)cc1
inactive: dose: 25.0 mg/kg/injection, schedule: Q04DX003 (ip), vehicle: saline 111 % of control | dose: 50.0 mg/kg/injection, schedule: Q04DX003 (ip), vehicle: saline 106 % of control | dose: 100.0 mg/kg/injection, schedule: Q04DX003 (ip), vehicle: saline 104 % of control | dose: 200.0 mg/kg/injection, schedule: Q04DX003 (ip), vehicle: saline 92 % of control

CC(=O)NC1CCC(C(F)(F)F)CC1 (configuration not stated)
inactive: dose: 100.0 mg/kg/injection, schedule: Q01DX001 (ip), vehicle: Klucel (hydroxypropylcellulose) (HPC) 93 % of control and 96 % of control | dose: 200.0 mg/kg/injection, schedule: Q01DX001 (ip), vehicle: Klucel (hydroxypropylcellulose) (HPC) 95 % of control and 98 % of control | dose: 400.0 mg/kg/injection, schedule: Q01DX001 (ip), vehicle: Klucel (hydroxypropylcellulose) (HPC) 106 % of control and 98 % of control

CN1CCN(CCSC(=O)C(O)(c2ccccc2)C2CCCC2)CC1 (configuration not stated)
inactive: dose: 150.0 mg/kg/injection, schedule: Q01DX001 (ip), vehicle: saline 102 % of control

NC(CSCCc1ccc2ccccc2n1)C(=O)O (configuration not stated)
inactive: [1] 100 % of control | [2] 95 % of control | [3] 99 % of control

CC(C(=O)c1ccccc1)c1ccccc1 (configuration not stated)
inactive: [10] 97 % of control | dose: 100.0 mg/kg/injection, schedule: Q01DX009 (ip), vehicle: saline with Tween-80 87 % of control | [7] 106 % of control | dose: 100.0 mg/kg/injection, schedule: Q04DX002 (ip), vehicle: saline with Tween-80 90 % of control | dose: 200.0 mg/kg/injection, schedule: Q01DX009 (ip), vehicle: saline with Tween-80 87 % of control | [8] 91 % of control | dose: 200.0 mg/kg/injection, schedule: Q04DX002 (ip), vehicle: saline with Tween-80 107 % of control | [9] 98 % of control | dose: 400.0 mg/kg/injection, schedule: Q04DX002 (ip), vehicle: saline with Tween-80 101 % of control

O=C(NCCCCCCCCCCNC(=O)C(Cl)Cl)C(Cl)Cl
inactive: [1] 98 % of control | [2] 90 % of control | [3] 105 % of control
